Target: recombinant chitinase domain of receptor kinase CHRK1 (amino acid residues 1 to 359 of SEQ ID NO: 1) (Nicotiana tabacum, UniProt Q9SWX8)
Assay: Fluorescence polarization chitin-binding assay with Scatchard plot analysis
Details: excitation 318 nm, emission 373 nm; for binding to the chitinase domain, seen as change in polarization value: fluorescence polarization, thioredoxin control did not increase
Procedure: The chitinase activity and the chitin-binding activity of receptor kinase CHRK1 in this invention are analysed using its recombinant chitinase domain. Consequently, the recombinant chitinase domain has a chitin-binding activity and lacks a chitinase activity.
In order to examine the chitinase activity of receptor kinase […], the recombinant chitinase domain corresponding to amino acid residues 1 to 359 of SEQ. ID NO: 1 was purified from E. coli, and its chitinase activity was estimated by fluorescence polarization assay.
As a result of Scratchard plot analysis, dissociation constant (kd) value of MU-chitotriose was estimated to be 800 nM. In case of using MU-chitotriose or MU-chitotetrose probe without fluorophor as a competitor, binding activity between the chitinase domain and MU-chitotriose or MU-chitotetrose conjugated with fluorophor was inhibited by the competitor. Consequently, the initial polarization value was decreased.

Chain of recombinant chitinase domain of receptor kinase CHRK1 (amino acid residues 1 to 359 of SEQ ID NO: 1) (Q9SWX8 entry or part of it): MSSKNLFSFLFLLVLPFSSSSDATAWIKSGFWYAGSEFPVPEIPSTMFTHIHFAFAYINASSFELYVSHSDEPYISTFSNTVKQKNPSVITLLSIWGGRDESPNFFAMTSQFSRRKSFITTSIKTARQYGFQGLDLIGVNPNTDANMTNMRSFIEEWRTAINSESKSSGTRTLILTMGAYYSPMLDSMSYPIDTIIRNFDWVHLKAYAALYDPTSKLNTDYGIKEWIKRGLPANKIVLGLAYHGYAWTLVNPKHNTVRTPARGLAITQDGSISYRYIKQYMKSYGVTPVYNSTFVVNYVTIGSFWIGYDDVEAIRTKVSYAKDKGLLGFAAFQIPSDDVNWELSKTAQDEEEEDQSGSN

Compound | binding to the chitinase domain, seen as change in polarization value | Kd (Scratchard plot analysis of fluorescence polarization, chitinase domain purified from E. coli, read-out: dissociation constant (kd))
CC(=O)NC1C(OC2C(CO)OC(OC3C(CO)OC(OC4C(CO)OC(Oc5ccc6c(C)cc(=O)oc6c5)C(NC(C)=O)C4O)C(NC(C)=O)C3O)C(NC(C)=O)C2O)OC(CO)C(O)C1O (stereo not drawn) [Mu-chitotetrose] | increased polarization value | –
CC(=O)N[C@H]1[C@H](Oc2ccc3c(C)cc(=O)oc3c2)O[C@H](CO)[C@@H](O[C@@H]2O[C@H](CO)[C@@H](O[C@@H]3O[C@H](CO)[C@@H](O)[C@H](O)[C@H]3NC(C)=O)[C@H](O)[C@H]2NC(C)=O)[C@@H]1O [MU-chitotriose] | increased polarization value | 0.8 µM

Source: US6410706B1, “Nucleic acid encoding chitin-binding receptor kinase” (Korea Research Institute of Bioscience and Biotechnology, priority 1999, dated 2002)
